Experiment: Single oral dose (5 mg/kg) pharmacokinetics of firocoxib in koalas, plasma HPLC, non-compartmental analysis;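 also: healthy adult koalas, three per sex, anaesthetised the day before dosing for cephalic vein catheterisation, with serial blood draws and firocoxib in plasma quantified by HPLC using fluorescence detection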
Conditions: for Cmax / MRT inf / Tmax / Vd/F / k el / half-life / concentration at 2 h / concentration at 4 h / concentration at 8 h / concentration at 1 h / concentration at 0.25 h / concentration at 0.5 h / concentration at 12 h / concentration at 24 h / AUC(0-inf) / AUC(0-t): plasma, po, 5 mg/kg; for MRT inf: MRT0-inf; for Vd/F: Vz/F; for concentration at 2 h / concentration at 4 h / concentration at 8 h / concentration at 1 h / concentration at 0.25 h / concentration at 0.5 h / concentration at 12 h / concentration at 24 h: Firocoxib plasma concentration; for AUC(0-t): AUC0-t
[1] = female, K4 female, single oral 5 mg/kg
[2] = female, K5 female, single oral 5 mg/kg
[3] = female, arithmetic mean, female koalas (n = 3), single oral 5 mg/kg
[4] = female, harmonic mean, female koalas (n = 3), single oral 5 mg/kg
[5] = female, K6 female, single oral 5 mg/kg
[6] = harmonic mean, female koalas (n = 3), single oral 5 mg/kg
[7] = harmonic mean, male koalas (n = 3), single oral 5 mg/kg
[8] = harmonic mean, n = 6 koalas, single oral 5 mg/kg
[9] = male, koala (Phascolarctos cinereus), K1 male, single oral 5 mg/kg
[10] = male, koala (Phascolarctos cinereus), K2 male, single oral 5 mg/kg
[11] = male, koala (Phascolarctos cinereus), K3 male, single oral 5 mg/kg
[12] = male, koala, K1 male, single oral 5 mg/kg
[13] = male, koala, K2 male, single oral 5 mg/kg
[14] = male, koala, K3 male, single oral 5 mg/kg
[15] = male, K1 male, single oral 5 mg/kg
[16] = male, K2 male, single oral 5 mg/kg
[17] = male, K3 male, single oral 5 mg/kg
[18] = male, arithmetic mean, male koalas (n = 3), single oral 5 mg/kg
[19] = male, harmonic mean, male koalas (n = 3), single oral 5 mg/kg
[20] = median (range), n = 6 koalas, single oral 5 mg/kg

Text: Six mature koalas (3 males, 3 females) with median (range) body weights and ages of 9.2 kg, (7.5 to 9.7 kg) and 4.8 years (4.3 to 9.1 years), respectively, were recruited from the Taronga Zoo colony (Mosman, NSW, Australia). These koalas were clinically normal based on regular physical examinations, haematological and biochemical analyte values. During the study, koalas were housed singly and supplied with various Eucalyptus spp. foliage and water ad-libitum. […] No animals were sacrificed; the animals were returned to the colony immediately after firocoxib administration and blood sampling. In order to minimise stress, intravenous catheterisation for sequential blood sampling was performed under general anaesthesia.
The day prior to drug administration and blood collection, the koalas were anaesthetised with alfaxalone (Alfaxan, Jurox, Pty Ltd, Rutherford, NSW, Australia) at 3 mg/kg administered intramuscularly (i.m.) and maintained under anaesthesia on isoflurane in 100% oxygen via a face mask for placement of a 20 gauge, 1 ¼ inch intravenous catheter into the cephalic vein. A short T-connector extension set (Codan, Santa Ana, CA, USA) and cap was attached to the catheter and flushed with saline. The extension tube, cap and catheter were secured with tape and bandage, for serial blood collection. Blood (5 mL) was collected at the time of anaesthesia in a lithium heparin tube to establish a baseline (t = 0 h).
Firocoxib was administered as a single oral dose of 5 mg/kg as crushed tablets made into a paste with Vetafarm Koala Crittacare (Wagga Wagga, NSW) and water.
Samples were centrifuged at 1500 x g for 10 minutes, within 1 h of collection; the plasma was immediately stored at –80 °C and protected from light until drug quantification. […] Clinical observations for the presence of adverse effects in the animals treated included measurement of vital signs, appetite, body weight, faecal consistency and overall behaviour and mobility.
Quantification of firocoxib and visualisation of metabolites in plasma was achieved by HPLC with fluorescence detection modified from a published method [12]. The HPLC system consisted of a Shimadzu LC-20AT solvent delivery unit, DGU-20A degasser, a SIL-20A HT auto injector, an SPD-20A UV detector and RF-10A XL fluorescence detector (Shimadzu, Rydalmere, NSW, Australia) and column oven (CTO-20A). […] Chromatographic separation was performed with a Supelco, Discovery C18, (25 cm x 4.6 mm, 5 µm) column (Merck KGaA, Darmstadt, Germany) with a 1-mm Opti-guard C18 pre-column (Choice Analytical, Thornleigh, NSW, Australia) at ambient temperature. […] Fluorescence detection excitation and emission wavelengths were 280 nm and 375 nm, respectively.
For sample preparation 200 μL of each of the following: plasma samples collected from koalas administered firocoxib, standards prepared for the standard curves and the QC samples; were extracted twice by mixing with 800 μL of ethyl acetate. The extracted organic portion (1.6 mL) was dried under vacuum in a Speed Vac Concentrator (Thermo Scientific, MA, USA) at 35 °C for 1 h, reconstituted with 100 μL of acetonitrile, and finally 10 μL of the reconstituted sample was injected into the HPLC system.
The concentration of each QC sample was repeated three times with the accuracy and precision calculated on each of the triplicates. The mean accuracy ± standard deviation (SD) were calculated using the formula [13]:
Firocoxib plasma concentrations from the initial oral administration underwent non-compartmental analysis. The peak concentration (Cmax) and the time reached (Tmax) were obtained directly from the measured concentrations. The elimination half-life (t1/2) was determined by ln2/ke where ke is the elimination rate constant which is the inverse slope of the elimination or terminal part of the semi-log curve.

SMILES: CC1(C)OC(=O)C(OCC2CC2)=C1c1ccc(S(C)(=O)=O)cc1 [firocoxib]
- Cmax (female, median value, female koalas, PO 5 mg/kg): 61.9 ng/mL
- MRT inf [1]: 8.74 h
- MRT inf [2]: 13.1 h
- MRT inf [3]: 16.1 h
- MRT inf [4]: 13.1 h
- Tmax [1]: 4 h
- Tmax [2]: 2 h
- Tmax [5]: 4 h
- Tmax [3]: 3.33 h
- Tmax [4]: 3 h
- Vd/F [1]: 202 L
- Vd/F [2]: 616 L
- Vd/F [5]: 2130 L
- Vd/F [3]: 982 L
- Vd/F [4]: 437 L
- k el (female, ke (elimination constant), K4 female, single oral 5 mg/kg, slope from 8, 12, 24 h): 5.28e-05 s⁻¹
- k el (female, ke (elimination constant), K5 female, single oral 5 mg/kg, slope from 8, 12, 24 h): 1.94e-05 s⁻¹
- k el (female, ke (elimination constant), K6 female, single oral 5 mg/kg, slope from 8,12,24 h): 2.78e-05 s⁻¹
- k el (female, ke, arithmetic mean, female koalas (n = 3), single oral 5 mg/kg): 3.33e-05 s⁻¹
- k el (female, ke, harmonic mean, female koalas (n = 3), single oral 5 mg/kg): 2.78e-05 s⁻¹
- half-life (female, t1/2 (elimination half-life), K4 female, single oral 5 mg/kg): 3.67 h
- half-life (female, t1/2 (elimination half-life), K5 female, single oral 5 mg/kg): 9.91 h
- half-life (female, t1/2 (elimination half-life), K6 female, single oral 5 mg/kg): 7.24 h
- half-life (female, t1/2, arithmetic mean, female koalas (n = 3), single oral 5 mg/kg): 6.94 h
- half-life (female, t1/2, harmonic mean, female koalas (n = 3), single oral 5 mg/kg): 5.87 h
- half-life (female, t1/2, median value, female koalas, PO 5 mg/kg): 7.24 h
- AUC 0-t/AUC0-inf [6]: 0.91
- AUMC 0-inf [6]: 10875.3 ng/mL*h^2
- Cl/F [6]: 52.0 L/h
- ka [6]: 0.25 h⁻¹
- AUC 0-t/AUC0-inf [7]: 0.88
- AUMC 0-inf [7]: 16711.5 ng/mL*h^2
- Cl/F [7]: 23.8 L/h
- ka [7]: 0.16 h⁻¹
- AUMC [8]: 13176.1 ng/mL*h ^ 2
- Cl/F [8]: 32.6 L/h
- ka [8]: 0.20 h⁻¹
- concentration at 2 h [9]: 22.7 ng/mL
- concentration at 4 h [9]: 68.3 ng/mL
- concentration at 8 h [9]: 191 ng/mL
- concentration at 2 h [10]: 39.2 ng/mL
- concentration at 4 h [10]: 210 ng/mL
- concentration at 8 h [10]: 118 ng/mL
- concentration at 1 h [11]: 41.9 ng/mL
- concentration at 2 h [11]: 105 ng/mL
- concentration at 4 h [11]: 263 ng/mL
- concentration at 8 h [11]: 128 ng/mL
- concentration at 0.25 h [12]: 7.94 ng/mL
- concentration at 0.5 h [12]: 4.51 ng/mL
- concentration at 1 h [12]: 8.34 ng/mL
- concentration at 12 h [12]: 101 ng/mL
- concentration at 24 h [12]: 57.2 ng/mL
- concentration at 0.25 h [13]: 4.37 ng/mL
- concentration at 0.5 h [13]: 10 ng/mL
- concentration at 1 h [13]: 21.7 ng/mL
- concentration at 12 h [13]: 39.7 ng/mL
- concentration at 24 h [13]: 4.13 ng/mL
- concentration at 0.25 h [14]: 16.6 ng/mL
- concentration at 0.5 h [14]: 52.5 ng/mL
- concentration at 12 h [14]: 49.6 ng/mL
- concentration at 24 h [14]: 3.86 ng/mL
- AUC(0-inf) (male, AUC0-inf, K1 male, single oral 5 mg/kg): 3000 ng·h/mL
- AUC(0-inf) (male, AUC0-inf, K2 male, single oral 5 mg/kg): 1540 ng·h/mL
- AUC(0-inf) (male, AUC0-inf, K3 male, single oral 5 mg/kg): 1950 ng·h/mL
- AUC(0-inf) (male, AUC 0-inf, arithmetic mean, male koalas (n = 3), single oral 5 mg/kg): 2160 ng·h/mL
- AUC(0-inf) (male, AUC 0-inf, harmonic mean, male koalas (n = 3), single oral 5 mg/kg): 2010 ng·h/mL
- AUC(0-t) [15]: 2160 ng·h/mL
- AUC(0-t) [16]: 1520 ng·h/mL
- AUC(0-t) [17]: 1930 ng·h/mL
- AUC(0-t) [18]: 1870 ng·h/mL
- AUC(0-t) [19]: 1830 ng·h/mL
- Cmax [15]: 191 ng/mL
- Cmax [16]: 210 ng/mL
- Cmax [17]: 263 ng/mL
- Cmax [18]: 221 ng/mL
- Cmax [19]: 217 ng/mL
- Cmax (male, median value, male koalas, PO 5 mg/kg): 210 ng/mL
- MRT inf [15]: 19 h
- MRT inf [16]: 7.13 h
- MRT inf [17]: 6.88 h
- MRT inf [18]: 11.1 h
- MRT inf [19]: 9.01 h
- Tmax [15]: 8 h
- Tmax [16]: 4 h
- Tmax [17]: 4 h
- Tmax [18]: 5.33 h
- Tmax [19]: 4.8 h
- Vd/F [15]: 277 L
- Vd/F [16]: 152 L
- Vd/F [17]: 113 L
- Vd/F [18]: 181 L
- Vd/F [19]: 158 L
- k el (male, ke (elimination constant), K1 male, single oral 5 mg/kg, slope from 12, 24 h): 1.39e-05 s⁻¹
- k el (male, ke (elimination constant), K2 male, single oral 5 mg/kg, slope from 4, 8, 12 h): 5.83e-05 s⁻¹
- k el (male, ke (elimination constant), K3 male, single oral 5 mg/kg, slope from 4, 8, 12 h): 6.11e-05 s⁻¹
- k el (male, ke, arithmetic mean, male koalas (n = 3), single oral 5 mg/kg): 4.44e-05 s⁻¹
- k el (male, ke, harmonic mean, male koalas (n = 3), single oral 5 mg/kg): 2.78e-05 s⁻¹
- half-life (male, t1/2 (elimination half-life), K1 male, single oral 5 mg/kg): 14.7 h
- half-life (male, t1/2 (elimination half-life), K2 male, single oral 5 mg/kg): 3.31 h
- half-life (male, t1/2 (elimination half-life), K3 male, single oral 5 mg/kg): 3.19 h
- half-life (male, t1/2, arithmetic mean, male koalas (n = 3), single oral 5 mg/kg): 7.06 h
- half-life (male, t1/2, harmonic mean, male koalas (n = 3), single oral 5 mg/kg): 4.38 h
- half-life (male, t1/2, median value, male koalas, PO 5 mg/kg): 3.31 h
- AUMC [20]: 12429.4 (8500.1–56998.2) ng/mL*h ^ 2
- Cl/F [20]: 34.5 (19.0-87.5) L/h
- ka [20]: 0.23 (0.11-0.43) 1/h
- time after which firocoxib could be detected in the plasma of all koalas (single oral 5 mg/kg): 15 min
